{"source": "patent US12241049B2", "about": "“Multi-compartment device containing human three-dimensional (3D) microtissues for toxicity testing” (BROWN UNIVERSITY, priority 2019, dated 2025)", "system": "HepaRG 3D microtissues", "settings": "10-day old HepaRG 3D microtissues, 1.2 mM CPA", "text": "FIG. 2B is a chart showing the change in HepaRG spheroid volume as an indicator of cytotoxicity induced by cyclophosphamide (CPA) with or without 1-aminobenzotriazol (ABT). The inventors analyzed the data with two-way ANOVA with Tukey's LSD means. P=0.05. […] FIG. 2C is a picture showing hematoxylin and eosin (H&E) stained toroid-shaped HepaRG microtissues. Scale bars=100 μm.", "data": [{"molecule": "O=P1(N(CCCl)CCCl)NCCCO1", "note": "(stereo not shown) [CPA, cyclophosphamide]", "values": [{"measurement": "cytotoxicity: cell death and spheroid volume", "result": "caused cell death and a significant reduction in spheroid volume"}]}]}
